Where two headings read alike, the source gives them in different places. Bounds are passed on as bounds.

Data set [1] deals with HepG2 cells. The data set is described as follows: Cellular antioxidant activity (CAA) assay: inhibition of peroxyl radical-induced DCFH oxidation. Type of data set: cell-based, human. The conditions noted are these: for EC50: Homo sapiens; for cellular antioxidant activity, result in words: no PBS wash protocol. Here is the method: Cells (e.g., human hepatocellular carcinoma cells; HepG2) are seeded at a density of e.g., 6×10^4/well on a 96-well microplate in 100 μL growth medium/well. It is preferred that only the inside wells of e.g., a 96-well microplate are used for the assay, since the outer wells have increased variation compared to that of the inner wells. Twenty-four hours after seeding the growth medium is removed and the wells are washed with PBS. Triplicate wells are treated for 1 h with 100 μL of a test compound (e.g., pure phytochemical compounds or fruit extracts) plus 25 μM DCFH-DA dissolved in treatment medium.
600 μM ABAP is then applied to the cells in 100 μL HBSS and the 96-well microplate is placed into a plate reader e.g., Fluoroskan Ascent FL plate-reader (ThermoLabsystems, Franklin, Mass.) at 37° C. Emission at 538 nm is measured with excitation at 485 nm, for example every 5 min for 1 h. Each plate should include triplicate control and blank wells: control wells contain cells treated with DCFH-DA and oxidant; blank wells contain cells treated with dye and HBSS without oxidant.
A test compound is assayed in multiple wells of e.g., a 96-well cell culture plate. Some wells are washed with 100 μL of phosphate-buffered saline (PBS) prior to the addition of ABAP, while other wells were not washed prior to the addition of ABAP. It was noted that the measured antioxidant activity of some fruit extracts (e.g., blueberries) was different when a PBS wash was used compared to when there was no PBS wash (see Table 2; FIGS. 3 and 4). This is likely due to non-specific binding of certain antioxidant compounds to the outer membrane, or a reduced uptake of the compound, thus the ratio of antioxidant activity values obtained with a PBS wash compared to a non-PBS wash indicates the bioavailability of the test compound. In order to accurately measure the intracellular antioxidant activity of a test compound, a PBS wash prior to the addition of a peroxyl initiator (e.g, ABAP) is necessary. The values obtained for cells assayed using a PBS wash should be compared to values obtained for the same cells assayed without a PBS wash. One of skill in the art can plan and perform experiments on a test compound in the presence and absence of a PBS wash, in order to accurately assess the intracellular antioxidant capacity of the test compound.
After blank subtraction from the fluorescence readings, the area under the curve of fluorescence versus time is integrated to calculate the cellular antioxidant activity (CAA) value at each concentration of pure phytochemical compound or fruit extract as follows:
where ∫SA is the integrated area under the sample fluorescence versus time curve and ∫CA is the integrated area from the control curve. The median effective dose (EC50) was determined for the pure phytochemical compounds and fruit extracts from the median effect plot of log (fa/fu) vs. log (dose), where fa is the fraction affected and fu is the fraction unaffected by the treatment. To quantify intra-experimental variation, the EC50 values are stated as mean±SD for triplicate sets of data obtained from the same experiment. Inter-experimental variation is obtained for some representative pure phytochemical compounds and fruit extracts by averaging the fluorescence values from triplicate wells in each trial to obtain one EC50 value per experiment and calculating the mean±SD for at least four trials. In each experiment, a standard is used, for example quecetin, thus permitting the cellular antioxidant activities for a test compounds to be expressed as μmol quercetin equivalents (QE)/100 μmol compound. Fruit extracts are expressed as μmol QE/100 g fruit. In order to compare the antioxidant quality of different fruits, cellular antioxidant activity (CAA) is also calculated as μmol QE/100 μmol total phenolics.
Human hepatocellular carcinoma HepG2 cells were seeded at a density of 6×10^4/well on a 96-well microplate in 100 μL growth medium/well. […]

Data set [2] concerns HepG2 cells. Nature of the data set: in vitro. The procedure:
(§1) Briefly, HepG2 cells are seeded at 4×10^4/well on a 96-well plate in 100 μL growth medium and incubated for 24 h at 37° C. The medium is removed and the cells are washed with PBS. Treatments of fruit extracts or antioxidant compounds in 100 μL treatment medium (Williams' Medium E supplemented with 2 mM L-glutamine and 10 mM Hepes) are applied to the cells and the plates are incubated at 37° C. for 24 h. The treatment medium is removed and the cells are washed with PBS. A volume of 50 μL/well methylene blue staining solution (98% HBSS, 0.67% glutaraldehyde, 0.6% methylene blue) is applied to each well and the plate is incubated at 37° C. for 1 h.
(§2) Excess dye is removed by immersing the plate in fresh deionized water until the water appears clear. The excess water should be tapped out of the wells and the plate allowed to air-dry briefly before addition of 100 μL elution solution (49% PBS, 50% ethanol, 1% acetic acid) to each well. The microplate is then placed on a bench-top shaker for 20 minutes to allow uniform elution. The absorbance is read at 570 nm with blank subtraction using, for example a MRX II DYNEX spectrophotometer (DYNEX Inc., Chantilly, Va.). Concentrations of pure compounds or fruit extracts that decrease the absorbance by more than 10% when compared to the control are considered to be cytotoxic.
(§3) Cytotoxicity was measured using the method of Oliver et al. (31) with modifications by our laboratory (32). […] The medium was removed and the cells were washed with PBS. Treatments of fruit extracts or antioxidant compounds in 100 μL treatment medium (Williams' Medium E supplemented with 2 mM L-glutamine and 10 mM Hepes) were applied to the cells and the plates were incubated at 37° C. for 24 h. The treatment medium was removed and the cells were washed with PBS. A volume of 50 μL/well methylene blue staining solution (98% HBSS, 0.67% glutaraldehyde, 0.6% methylene blue) was applied to each well and the plate was incubated at 37° C. for 1 h. The dye was removed and the plate was immersed in fresh deionized water three times, or until the water was clear. The water was tapped out of the wells and the plate was allowed to air-dry briefly before 100 μL elution solution (49% PBS, 50% ethanol, 1% acetic acid) was added to each well. The microplate was placed on a bench-top shaker for 20 minutes to allow uniform elution. The absorbance was read at 570 nm with blank subtraction using the MRX II DYNEX spectrophotometer (DYNEX Inc., Chantilly, Va.). Concentrations of pure compounds or fruit extracts that decreased the absorbance by more than 10% when compared to the control were considered to be cytotoxic.
(§4) The median cytotoxic concentration (CC50) was calculated for each fruit.
(§5) Briefly, HepG2 cells were seeded at 4×10^4/well on a 96-well plate in 100 μL growth medium and incubated for 24 h at 37° C. The medium was removed, and the cells were washed with PBS. Flavonoids in 100 μL growth medium were applied to the cells, and the plates were incubated at 37° C. for 24 h. The medium was removed, and the cells were washed with PBS before a volume of 50 μL/well methylene blue staining solution (98% HBSS, 0.67% glutaraldehyde, 0.6% methylene blue) was applied to each well, and the plate was incubated at 37° C. for 1 h. The dye was removed, and the plate was immersed in fresh deionized water until the water was clear. The water was tapped out of the wells, and the plate was allowed to air-dry briefly before 100 μL of elution solution (49% PBS, 50% ethanol, 1% acetic acid) was added to each well. The microplate was placed on a benchtop shaker for 20 min to allow uniform
(§6) elution. The absorbance was read at 570 nm with blank subtraction using the MRX II Dynex spectrophotometer (Dynex Inc., Chantilly, Va.). The median cytotoxic concentration (CC50) was calculated for each flavonoid.

Another data set in a line: in vitro. The conditions noted are these: human. The procedure: as §1, §2, §3, §4, §5, §6
[3] abbreviates: HepG2, Example 1, Table 1, PBS wash, pure phytochemical compounds, mean ± SD, n=3, read-out: EC50 for inhibition of peroxyl radical-induced DCFH oxidation.
The mark [4] stands for this setting: HepG2, Example 1, Table 1, no PBS wash, pure phytochemical compounds, mean ± SD, n=3, read-out: EC50 for inhibition of peroxyl radical-induced DCFH oxidation.

As usually defined, the EC50 is the concentration at which the effect is half-maximal. As for `O=C(O)/C=C/c1ccc(O)c(O)c1` [Caffeic acid, caffeic acid], the CAA value with HepG2 cells [1] (Example 1, no PBS wash, pure compounds, EC50 converted to quercetin equivalents) came to 5.59±0.70 μmol QE/100 μmol. Besides, in the data set on HepG2 cells [1] (Example 1, summary statement), the “percent of the antioxidant activity of quercetin in the CAA assay” value was “less than ten percent”. Also, the EC50 in the data set on HepG2 cells [1] (setting [3]) worked out at 525 ± 38 µM; with HepG2 cells [1] (setting [4]), 95.3 ± 15.3 µM. The “Cytotoxicity (cytotoxic concentration)” value in the data set on HepG2 cells [2] (human, 24 h) was greater than 500 µM.
`Oc1cc(O)c2c(c1)O[C@H](c1ccc(O)c(O)c1)[C@H](O)C2` [Epicatechin, (−)-epicatechin]: the CAA in the data set with HepG2 cells [1] (Example 3, Table 7, no PBS wash) is on record as 1.9 ± 0.2 μmol of QE/100 μmol. Moreover, the EC50 was greater than 600 µM in the data set on HepG2 cells [1] (setting [3]); greater than 200 µM with HepG2 cells [1] (setting [4]); greater than 800 µM in the data set on HepG2 cells [1] (HepG2, Example 3, Table 7, PBS wash, flavonoids, mean ± SD, n=3, read-out: EC50); 457 ± 47 µM with HepG2 cells [1] (HepG2, Example 3, Table 7, no PBS wash, flavonoids, mean ± SD, n=3, read-out: EC50); 457 ± 47 µM in the data set on HepG2 cells [1] (HepG2, Example 3, text, no PBS wash, read-out: EC50). For the same compound, the CC50 at 24 h in the data set “in vitro” was greater than 1000 µM. The “Cytotoxicity (cytotoxic concentration)” value in the data set on HepG2 cells [2] (human, 24 h) is greater than 500 µM.
On to `Oc1ccc(C=Cc2cc(O)cc(O)c2)cc1` [Resveratrol, resveratrol], for which the EC50 with HepG2 cells [1] (setting [3]) and with HepG2 cells [1] (setting [4]) was greater than 40 µM in each case. For the same compound, in the data set on HepG2 cells [1], the “cellular antioxidant activity, result in words” value (from here on “cellular antioxidant activity”) is “activity only at doses much higher than their cytotoxic concentrations”. Moreover, the “Cytotoxicity (cytotoxic concentration)” value with HepG2 cells [2] (Example 1, dose at which the cell number is reduced by more than 10% after 24 h treatment) worked out at 40 µM.
Regarding `O=C(CCc1ccc(O)cc1)c1c(O)cc(O)cc1O` [Phloretin, phloretin], the EC50 with HepG2 cells [1] (setting [3]) and in the data set with HepG2 cells [1] (setting [4]) was greater than 25 µM throughout. Also, the “cellular antioxidant activity” value in the data set on HepG2 cells [1] is reported as “activity only at doses much higher than their cytotoxic concentrations”. For the same compound, the “Cytotoxicity (cytotoxic concentration)” value in the data set on HepG2 cells [2] (human, 24 h) was determined as 25 µM.
With `COc1cc(/C=C/C(=O)O)ccc1O` [Ferulic acid, ferulic acid], the EC50 is greater than 500 µM in the data set with HepG2 cells [1] (setting [3]) and greater than 250 µM in the data set on HepG2 cells [1] (setting [4]). For the same compound, in the data set on HepG2 cells [1], the “cellular antioxidant activity” value is on record as “low activity within the doses tested”. Besides, the “Cytotoxicity (cytotoxic concentration)” value with HepG2 cells [2] (human, 24 h) was greater than 500 µM.

The values above are taken from US20110313672A1, “CELLULAR ANTIOXIDANT ACTIVITY (CAA) ASSAY” (CORNELL UNIVERSITY, priority 2007, published 2011).
